Key:
Format in all cases: cell-based
Vibrio salmonicidia = assay: Minimal inhibitory concentration, Vibrio salmonicidia
[1] = test system: Vibrio anguillarum, serotype 1; assay: Minimal inhibitory concentration, Vibrio anguillarum, serotype 1
[2] = test system: Yersinia ruckeri, serotype 2; assay: Minimal inhibitory concentration, Yersinia ruckeri, serotype 2
[3] = test system: Yersinia ruckeri, serotype 3; assay: Minimal inhibitory concentration, Yersinia ruckeri, serotype 3

Row | SMILES | Minimal Inhibitory Concentration (Vibrio salmonicidia) | Minimal Inhibitory Concentration [1] | Minimal Inhibitory Concentration [2] | Minimal Inhibitory Concentration [3]
1 | CC1CCc2cc(F)cc3c(=O)c(C(=O)O)cn1c23 (centres unmarked) [Flumequine, flumequine] | 0.035 | 0.035 | 1.2 | 0.25
2 | CCn1cc(C(=O)O)c(=O)c2cc3c(cc21)OCO3 [Oxolinic Acid, oxolinic acid] | 0.07 | 0.035 | 1.0 | 0.25

From US5169634A, “Pharmaceutical dosage form for the medication of fish” (priority 1988, dated 1992)
